Experimental data: the supplement of paper PMC4932681

Key:
Test in all cases: viability inhibition at highest dose (% inhibition); higher = more growth inhibition
[1] = system: BT-474 Tam1; conditions: 4-OH-tamoxifen in medium 1 µM; 72 h
Procedure: (§1)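 Percent inhibition of viability (CellTiter-Glo, 72 h) at the highest tested concentration (D5), normalised to DMSO (0%) and 100 µM benzethonium chloride (100%). Resistant lines and the 'in 1µM tamoxifen' arms were tested in 1 µM 4-OH-tamoxifen.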

[2] = system: BT-474 Tam2; conditions: 4-OH-tamoxifen in medium 1 µM; 72 h
Procedure: as §1

[3] = system: BT-474; conditions: 72 h
Procedure: as §1

[4] = system: MCF-7 Tam1; conditions: 4-OH-tamoxifen in medium 1 µM; 72 h
Procedure: as §1

[5] = system: MCF-7; conditions: 72 h
Procedure: as §1

[6] = system: T-47D Tam1; conditions: 4-OH-tamoxifen in medium 1 µM; 72 h
Procedure: as §1

[7] = system: T-47D Tam2; conditions: 4-OH-tamoxifen in medium 1 µM; 72 h
Procedure: as §1

[8] = system: T-47D; conditions: 72 h
Procedure: as §1

[9] = system: ZR-75-1 Tam1; conditions: 4-OH-tamoxifen in medium 1 µM; 72 h
Procedure: as §1

[10] = system: ZR-75-1 Tam2; conditions: 4-OH-tamoxifen in medium 1 µM; 72 h
Procedure: as §1

[11] = system: ZR-75-1; conditions: 72 h
Procedure: as §1

SMILES | viability inhibition at highest dose [1] | viability inhibition at highest dose [2] | viability inhibition at highest dose ([3]; 4-OH-tamoxifen in medium 0 µM) | viability inhibition at highest dose ([3]; 4-OH-tamoxifen in medium 1 µM) | viability inhibition at highest dose [4] | viability inhibition at highest dose ([5]; 4-OH-tamoxifen in medium 0 µM) | viability inhibition at highest dose ([5]; 4-OH-tamoxifen in medium 1 µM) | viability inhibition at highest dose [6] | viability inhibition at highest dose [7] | viability inhibition at highest dose ([8]; 4-OH-tamoxifen in medium 0 µM) | viability inhibition at highest dose ([8]; 4-OH-tamoxifen in medium 1 µM) | viability inhibition at highest dose [9] | viability inhibition at highest dose [10] | viability inhibition at highest dose ([11]; 4-OH-tamoxifen in medium 0 µM) | viability inhibition at highest dose ([11]; 4-OH-tamoxifen in medium 1 µM)
C=CC(=O)Nc1cc2c(Nc3ccc(F)c(Cl)c3)ncnc2cc1OCCCN1CCOCC1 [Canertinib] (drug 10000 nM) | 90 | 93.5 | 80.1 | 92.3 | 28 | 64.2 | 71.1 | 46.6 | 63.2 | 38.9 | 24.2 | 37.1 | 44.3 | 41.4 | 35.5
Cc1ccc(-c2cc(C(F)(F)F)nn2-c2ccc(S(N)(=O)=O)cc2)cc1 [Celecoxib] (drug 10000 nM) | 12.6 | 4.93 | -0.849 | 1.11 | 4.31 | 15.2 | 5.23 | 2.27 | 18.3 | -3.21 | 5.57 | 4.71 | -10.3 | -12 | 11.6
COc1cccc2c1C(=O)c1c(O)c3c(c(O)c1C2=O)C[C@@](O)(C(=O)CO)C[C@@H]3O[C@H]1C[C@H](N)[C@H](O)[C@H](C)O1 [Doxorubicin] (drug 1000 nM) | 68.5 | 16.9 | 65 | 90.4 | 56.6 | 76.9 | 66.1 | 77.1 | 72.7 | 73 | 76.2 | 76.4 | 73.5 | 62.2 | 82.4
O=c1[nH]c(=O)n([C@H]2C[C@H](O)[C@@H](CO)O2)cc1F [Floxuridine] (drug 10000 nM) | 12.3 | 3.04 | 30.5 | 27.9 | 5.39 | 21 | 1.8 | 59 | 21.3 | 22.3 | 7.89 | 8.75 | 18.5 | 22.7 | 12.6
CC(C)C[C@@H](C(=O)N[C@H](C(=O)OC1CCCC1)c1ccccc1)[C@H](O)C(=O)NO [Tosedostat (CHR 2797)] (drug 10000 nM) | 34.7 | 28.5 | 19 | 54.7 | 14.2 | 40.5 | 38.1 | 46.1 | 48.2 | 33.3 | 15.7 | 30 | 37 | 22.3 | 28.8
C[C@]1(O)C[C@@H](c2nc(-c3ccc4ccc(-c5ccccc5)nc4c3)c3c(N)nccn32)C1 [Linsitinib (OSI-906)] (drug 10000 nM) | 3.26 | 7.88 | -2.14 | 21.6 | 38.1 | 52.5 | 62.4 | 84.2 | 29 | 28.3 | 33.2 | 12.2 | 16.3 | 14.6 | 20.1
Nc1nc2[nH]cc(CCc3ccc(C(=O)N[C@@H](CCC(=O)O)C(=O)O)cc3)c2c(=O)[nH]1 [Pemetrexed] (drug 10000 nM) | -2.78 | 4.1 | -2.99 | -11.2 | -1.81 | -15.5 | 14.3 | -2.82 | 9.3 | -12.4 | 8.3 | 1.51 | -6.3 | -12.7 | -4.01
COC1=CC(c2cc3ccccc3[nH]2)=N/C1=C\c1[nH]c(C)cc1C [Obatoclax (GX15-070)] (drug 10000 nM) | 36.3 | 86.7 | 68.9 | 18.9 | 51.1 | 45.6 | 75.8 | 67.3 | 36.8 | 47 | 44.1 | 23.7 | 50.8 | 32.5 | 31.2
O=P(O)(NCCCl)NCCCl [Ifosfamide mustard] (drug 10000 nM) | -11.5 | -5.04 | -4.47 | -15.1 | -11 | -19.2 | -14.2 | -3.5 | -1.32 | -13.8 | -10.1 | 1.78 | 0.309 | -10.9 | -4.6
CN1CCN(CCOc2cc(OC3CCOCC3)c3c(Nc4c(Cl)ccc5c4OCO5)ncnc3c2)CC1 [Saracatinib] (drug 10000 nM) | 100 | 100 | 50.3 | 94.4 | 4.6 | 25.2 | 15 | 36.6 | 27.9 | 17.5 | -7.13 | -10.5 | -17.9 | -37.6 | -19.4
Cc1ccc(C(=O)N(CCCN)[C@@H](c2oc3cc(Cl)ccc3c(=O)c2Cc2ccccc2)C(C)C)cc1 (drug 100 nM) | -6.24 | -0.695 | -10.2 | -22.8 | -9.67 | 5.45 | 19.8 | -2.81 | 7.13 | -16.7 | -5.16 | -7.2 | -13.3 | -10.8 | -9.18
N.N.[Cl][Pt][Cl] [Cisplatin] (drug 10000 nM) | -9.25 | 2.59 | -3.72 | -4.53 | 3.44 | -20.9 | 0.697 | -3.02 | 8.3 | -16.1 | -8.72 | 3.43 | -1.7 | -8.66 | -5.04
Cn1cc(C2=Nc3cc(NC(=O)C(N)C4CCCCC4)cc4c3C2=CNNC4=O)cn1 (stereo not given) (drug 10000 nM) | 3.49 | -6.26 | 3.65 | -3.68 | 1.36 | 31 | 12.3 | 28.7 | 26.5 | 4.48 | 28.4 | -5.99 | -2.91 | 8.7 | -11.4
